Reference: ChEMBL document CHEMBL5550110, “An insight into the mechanistic role of (-)-Ampelopsin F from Vatica chinensis L. in inducing insulin secretion in pancreatic beta cells” (Bioorg Med Chem, 2024)
The source made the active and inactive calls. The calls are words filed in the database; no cut-off is given here.

Experiments:
[1] = Induction of glucokinase expression in mouse Beta-TC6 cells assessed as fold increase at 0.1 uM incubated for 24 hrs by Western blotting analysis relative to control; format: functional
Beta-TC6 [2] = assay: Induction of mitochondrial membrane hyperpolarization in mouse Beta-TC6 cells at 0.1 uM after 24 hrs by JC-1 staining based fluorescence microscopy analysis; format: cell-based
Beta-TC6 [3] = assay: Induction of insulin secretion in mouse Beta-TC6 cells assessed as fold increase at 0.1 uM incubated for 24 hrs by ELISA relative to control; format: functional
Beta-TC6 [4] = assay: Induction of calcium level in mouse Beta-TC6 cells assessed as fold increase at 0.1 uM incubated for 30 mins by Fura-2 AM staining based fluorescence microscopy analysis relative to control; format: functional; settings: 0.5 h
Beta-TC6 [5] = assay: Induction of mitochondrial membrane hyperpolarization in mouse Beta-TC6 cells at 50 uM after 24 hrs by JC-1 staining based fluorescence microscopy analysis; format: cell-based
Beta-TC6 [6] = assay: Induction of insulin secretion in mouse Beta-TC6 cells assessed as fold increase at 50 uM incubated for 24 hrs by ELISA relative to control; format: functional
Beta-TC6 [7] = assay: Cytotoxicity against mouse Beta-TC6 cells assessed as reduction in cell viability at 50 uM incubated for 24 hrs by MTT assay; format: toxicity, cell-based; settings: beta-tc6, 24 h
Beta-TC6 [8] = assay: Induction of calcium level in mouse Beta-TC6 cells assessed as fold increase at 50 uM incubated for 30 mins by Fura-2 AM staining based fluorescence microscopy analysis relative to control; format: functional; settings: 0.5 h
[9] = Induction of glucokinase expression in mouse Beta-TC6 cells assessed as fold increase at 50 uM incubated for 24 hrs by Western blotting analysis relative to control; format: functional
[10] = Induction of GLUT2 expression in mouse Beta-TC6 cells assessed as fold increase at 50 uM incubated for 24 hrs by Western blotting analysis relative to control; format: functional
[11] = biological target: Dipeptidyl peptidase 4 (Mus musculus) (UniProt P28843); assay: Inhibition of DPP4 in mouse Beta-TC6 cells assessed as reduction in AMC production at 50 uM measured every min by fluorescence plate reader assay relative to positive control; format: cell-based
[12] = biological target: Dipeptidyl peptidase 4 (Mus musculus) (UniProt P28843); assay: Inhibition of DPP4 in mouse Beta-TC6 cells assessed as reduction in AMC production at 50 uM measured every min by fluorescence plate reader assay relative to control; format: cell-based
Beta-TC6 [13] = assay: Induction of mitochondrial membrane hyperpolarization in mouse Beta-TC6 cells at 0.9 uM after 24 hrs by JC-1 staining based fluorescence microscopy analysis; format: cell-based

Dipeptidyl peptidase 4 (Mus musculus), sequence (P28843 whole entry, looked up): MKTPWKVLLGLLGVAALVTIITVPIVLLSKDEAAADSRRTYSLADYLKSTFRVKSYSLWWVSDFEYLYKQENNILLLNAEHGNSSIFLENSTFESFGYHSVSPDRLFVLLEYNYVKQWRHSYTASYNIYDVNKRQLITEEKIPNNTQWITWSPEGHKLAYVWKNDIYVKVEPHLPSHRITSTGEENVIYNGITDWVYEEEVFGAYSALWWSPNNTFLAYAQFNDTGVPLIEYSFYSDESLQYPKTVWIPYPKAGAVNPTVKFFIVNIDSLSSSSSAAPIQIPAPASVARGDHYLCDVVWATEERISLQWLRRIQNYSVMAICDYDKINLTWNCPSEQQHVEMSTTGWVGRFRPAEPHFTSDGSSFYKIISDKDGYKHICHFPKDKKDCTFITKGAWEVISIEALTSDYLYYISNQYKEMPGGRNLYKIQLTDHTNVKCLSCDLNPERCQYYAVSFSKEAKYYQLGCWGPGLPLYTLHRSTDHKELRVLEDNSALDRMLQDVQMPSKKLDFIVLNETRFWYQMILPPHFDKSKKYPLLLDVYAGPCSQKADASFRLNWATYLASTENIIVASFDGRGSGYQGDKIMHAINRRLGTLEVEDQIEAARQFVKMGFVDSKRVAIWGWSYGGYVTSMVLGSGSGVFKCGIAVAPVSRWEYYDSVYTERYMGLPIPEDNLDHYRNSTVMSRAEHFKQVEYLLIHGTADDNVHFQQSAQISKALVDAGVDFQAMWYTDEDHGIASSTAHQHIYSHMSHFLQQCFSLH

COc1ccc(Cl)cc1C(=O)NCCc1ccc(S(=O)(=O)NC(=O)NC2CCCCC2)cc1 [GLYBURIDE]
fold change (FC) [1]: 2 | Activity (Beta-TC6 [2]): Active | fold change (FC) (Beta-TC6 [3]): 4 | fold change (FC) (Beta-TC6 [4]): 2

Oc1ccc([C@@H]2c3c(O)cc(O)cc3[C@H]3c4c(O)cc(O)cc4[C@H]2[C@@H]3c2ccc(O)cc2)cc1
Activity (Beta-TC6 [5]): Active | fold change (FC) (Beta-TC6 [6]): 3.5 | Activity (Beta-TC6 [7]): < 15% | fold change (FC) (Beta-TC6 [8]): 2 | fold change (FC) [9]: 2.5 | fold change (FC) [10]: 1.5 | inhibition [11]: 85% | inhibition [12]: 63%

CC(C)[C@@H]1NC(=O)[C@H](C)OC(=O)[C@@H](C(C)C)NC(=O)[C@@H](C(C)C)OC(=O)[C@H](C(C)C)NC(=O)[C@H](C)OC(=O)[C@@H](C(C)C)NC(=O)[C@@H](C(C)C)OC(=O)[C@H](C(C)C)NC(=O)[C@H](C)OC(=O)[C@@H](C(C)C)NC(=O)[C@@H](C(C)C)OC1=O
Activity (Beta-TC6 [13]): inactive
